# Reference: US6596707B2, “Monovalent saccharides and uses thereof” (priority 2001, dated 2003)
# Legend:
# [1] = molecular target: Shiga-like toxin II (SLT II) (Escherichia phage 933W, UniProt P09386); type: cell-based, E. coli O157:H7
# [2] = molecular target: Shiga-like toxin I (SLT I) (Bacteriophage H30, UniProt P69178)
# [3] = Pharmacokinetics of globotriose in mice after IV or oral administration
# [4] = Toxicity of globotriose administered to mice (previous pharmacokinetic studies)
# Chain of Shiga-like toxin I (SLT I) (P69178 whole entry, looked up): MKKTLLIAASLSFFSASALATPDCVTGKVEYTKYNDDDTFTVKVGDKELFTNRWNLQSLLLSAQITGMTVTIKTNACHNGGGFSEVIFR
# Chain of Shiga-like toxin II (SLT II) (P09386 whole entry, looked up): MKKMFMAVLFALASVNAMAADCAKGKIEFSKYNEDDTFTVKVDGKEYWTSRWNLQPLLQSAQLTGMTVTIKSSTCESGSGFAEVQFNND
smiles,measurement,setting,value
"OC[C@H]1O[C@H](O[C@@H]2[C@H](O)[C@@H](O)[C@H](O[C@H]3[C@H](O)[C@@H](O)C(O)O[C@@H]3CO)O[C@@H]2CO)[C@H](O)[C@@H](O)[C@H]1O (stereo partly drawn) [globotriose, galactose α1,4 galactose β1,4 glucose]",inhibition of cell death from SLT II,[1],8%
same,inhibition of cell death from SLT I,[2],52%
same,"reduction of cytotoxicity (SLT I), toxin pre-attached",[2],33%
same,clearance kinetics,[3]; IV administered,bi-exponential clearance kinetics
same,time over which excreted through the kidneys,[3]; IV administered,> 24 h
same,bioavailable (oral dose crossed into circulation),[3]; orally administered,approximately 10%
same,"excreted in the urine, time post-dose",[3]; orally administered,up to 48 hours
same,fate of the majority of orally administered dose,[3]; orally administered,excreted into the feces unmetabolized
same,kinetics,[3]; orally administered,bi-exponential kinetics
same,toxic effects after intravenous administration,[4]; intravenously 333 mg/kg,no toxic effects
same,toxic effects after oral administration,[4]; orally 3333 mg/kg,no toxic effects
